These results are taken from patent US10787436B2, “Inhibitors of cyclin-dependent kinase 7 (CDK7)” (Dana-Farber Cancer Institute, Inc., priority 2012, dated 2020).

For assay [1], the target named is IRAK1 (Homo sapiens (Human), UniProt P51617). As to the kind of experiment: Life Technologies Adapta kinase assay, IRAK1. The assay is classed as biochemical. Conditions: read-out: Calculated IC50, IRAK1.
Assay [2] relates to SK-ES. As to the kind of experiment: Proliferation assay, CellTiter-Glo, 72 hour. Format: cell-based. As to conditions: Ewing's sarcoma cell line, read-out: Inhibition of proliferation, SK-ES. For orientation: In ATP-based viability assays light output follows the ATP content of the culture.
For assay [3], the system named is MNNG-HOS Cl#5. Description: Proliferation assay, CellTiter-Glo, 72 hour. Format: cell-based. As to conditions: osteosarcoma cell line, read-out: Inhibition of proliferation, MNNG-HOS Cl#5.
The test system of assay [4] is RNAP II CTD phosphorylation. Description: RNAP II CTD phosphorylation immunoblot in Loucy cells (dose response, time course, washout). The assay is classed as cell-based. Conditions: for IC50: 4 hours. How it is done:
Following the treatment, the cells were washed 2-fold with PBS. Fresh medium containing no inhibitors were added back to the cells. The cells were lysed at indicated time points, and the lysates were probed for RNAP II CTD phosphorylation.
CDK7 exerts its regulatory control of transcription largely by phosphorylating RNAP II CTD, which promotes active transcription. […] Reduction of Ser-5 phosphorylation was seen only at higher concentrations.
Covalent kinase inhibitors have several characteristics that functionally differentiate themselves from their reversible counterparts. […] Washout of compound I-23R, following a 4-hour administration led to the recovery of RNAP II CTD phosphorylation within 1 hour (FIG. 2C). […] This phenomenon was also visible using in vitro kinase reactions comparing pre-incubation of compound I-23 with compound I-23 introduced concurrently with ATP.
(Immunoblotting shows a protein as a band on a membrane.)

The target in assay [5] is CDK7 (recombinant CAK complex) (Homo sapiens (Human), UniProt P50613). Description: In vitro kinase assay with recombinant CAK complex, with and without pre-incubation. The assay is classed as biochemical. As to conditions: 25 μM ATP, 45 minutes at 30° C. How it is done: Cellular lysates were then probed with antibodies recognizing the Ser-2, Ser-5, and Ser-7 CTD phosphoepitopes. […] At each time point cells were lysed, and the cellular lysates were probed using antibodies as described herein. […] Cells were allowed to grow in medium without inhibitor for 0 to 6 hours. At each time point cells were lysed, and the cellular lysates were probed using antibodies as described herein. […] The kinase reaction was then allowed to proceed for 45 minutes at 30° C.
CDK7 (recombinant CAK complex), sequence (P50613 whole entry): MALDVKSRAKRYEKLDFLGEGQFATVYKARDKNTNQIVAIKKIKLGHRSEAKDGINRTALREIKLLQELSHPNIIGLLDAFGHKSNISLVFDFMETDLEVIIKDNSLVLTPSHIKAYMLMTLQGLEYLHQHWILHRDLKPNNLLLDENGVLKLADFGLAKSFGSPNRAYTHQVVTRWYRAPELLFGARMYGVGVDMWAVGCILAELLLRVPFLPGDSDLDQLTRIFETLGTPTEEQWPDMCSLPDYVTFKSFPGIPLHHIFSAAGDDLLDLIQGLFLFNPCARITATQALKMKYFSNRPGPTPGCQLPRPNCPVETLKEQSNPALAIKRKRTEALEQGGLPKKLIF
CDK7 (recombinant CAK complex), sequence (P51946 whole entry partner): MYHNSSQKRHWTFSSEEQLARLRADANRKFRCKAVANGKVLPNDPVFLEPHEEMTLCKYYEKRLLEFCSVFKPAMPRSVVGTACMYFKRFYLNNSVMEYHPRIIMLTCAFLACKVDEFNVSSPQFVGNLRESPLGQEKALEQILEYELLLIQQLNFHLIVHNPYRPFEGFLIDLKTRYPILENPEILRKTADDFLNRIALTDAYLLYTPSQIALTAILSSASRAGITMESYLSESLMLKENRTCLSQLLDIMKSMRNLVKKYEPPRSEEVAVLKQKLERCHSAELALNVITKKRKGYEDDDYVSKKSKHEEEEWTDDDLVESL
CDK7 (recombinant CAK complex), sequence (P51948 whole entry partner): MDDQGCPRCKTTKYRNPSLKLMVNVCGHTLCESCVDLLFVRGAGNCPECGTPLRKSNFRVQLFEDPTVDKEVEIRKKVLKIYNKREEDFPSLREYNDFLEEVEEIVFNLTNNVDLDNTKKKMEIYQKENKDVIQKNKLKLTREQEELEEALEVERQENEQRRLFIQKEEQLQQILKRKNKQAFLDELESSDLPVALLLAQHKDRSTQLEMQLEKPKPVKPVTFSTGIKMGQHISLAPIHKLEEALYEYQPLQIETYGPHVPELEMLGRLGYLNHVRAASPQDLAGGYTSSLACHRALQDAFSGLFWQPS
In vitro kinase assays with immunoprecipitated proteins (or recombinant CAK complexes) were performed as follows. Kinase reactions were performed in 25 μL of final volume of reaction buffer (50 mM Hepes, pH 7.5, 150 mM NaCl, 10 mM MgCl2, 5% glycerol, 25 μM ATP, and 10 μCi of [γ-32P]ATP). Each reaction contained 1 μg of RNAP II. Incubation was at 30° C. for 30-45 min. Reactions were terminated by addition of 5 μL of 5×SDS-PAGE sample buffer and incubated at 95° C. for 5 min. Reactions were analyzed by SDS-PAGE, and the dried gel was exposed to film or PhosphorImager plate.
Covalent kinase inhibitors have several characteristics that functionally differentiate themselves from their reversible counterparts. […] Washout of compound I-23R, following a 4-hour administration led to the recovery of RNAP II CTD phosphorylation within 1 hour (FIG. 2C). […]

Assay [6] concerns multiple myeloma cell lines. Description: Anti-proliferative effect in multiple myeloma cell lines with or without stromal cells, cell titer glo, 48-hour. Format: cell-based. Conditions: 48-hour treatment. The method, then: Clinical isolates of CLL were cultured with compounds of Formula (I) or flavopiridol and assessed for cell death after a 24 hour time course by Annexin V staining. […] Anti-proliferative effect was measured using cell titer glo analysis.
Proliferation assays were conducted over a 48-72 hour time period (as noted). […] Cancer cell line profiling was performed over a 72 time period using Alamar Blue reagent.

The structures appear in SMILES notation. Where two headings read alike, the source gives them in different places.

IRAK1, sequence (P51617 whole entry): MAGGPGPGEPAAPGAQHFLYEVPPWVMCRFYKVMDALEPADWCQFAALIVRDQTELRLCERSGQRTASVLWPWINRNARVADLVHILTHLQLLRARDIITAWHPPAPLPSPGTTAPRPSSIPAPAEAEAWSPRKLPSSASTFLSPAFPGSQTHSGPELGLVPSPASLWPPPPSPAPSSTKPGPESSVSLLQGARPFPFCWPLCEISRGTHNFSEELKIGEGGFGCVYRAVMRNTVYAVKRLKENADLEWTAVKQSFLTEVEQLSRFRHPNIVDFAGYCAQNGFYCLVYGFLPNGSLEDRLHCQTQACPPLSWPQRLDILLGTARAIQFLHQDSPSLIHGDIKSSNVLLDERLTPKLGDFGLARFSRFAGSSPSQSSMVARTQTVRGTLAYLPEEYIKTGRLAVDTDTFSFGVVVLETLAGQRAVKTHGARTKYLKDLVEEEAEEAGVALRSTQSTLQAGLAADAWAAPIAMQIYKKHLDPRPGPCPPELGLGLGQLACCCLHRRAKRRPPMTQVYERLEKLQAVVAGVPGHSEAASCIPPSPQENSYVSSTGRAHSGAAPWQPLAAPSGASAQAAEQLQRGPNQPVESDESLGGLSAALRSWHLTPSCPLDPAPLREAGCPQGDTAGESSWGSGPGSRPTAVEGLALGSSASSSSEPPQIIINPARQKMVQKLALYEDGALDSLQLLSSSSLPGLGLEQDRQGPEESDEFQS

`CN(C)C/C=C/C(=O)Nc1ccc(C(=O)Nc2cccc(Nc3ncc(Cl)c(-c4c[nH]c5ccccc45)n3)c2)cc1` [Formula I-23]: the IC50 in assay [1] was less than 100 nM; in assay [2], less than 500 nM; in assay [3] it was 500 to 5000 nM; in assay [4] (read-out: Cellular IC50 for RNAP II CTD Ser-2 phosphorylation) it was approximately 20 nM; in assay [4] (read-out: Cellular IC50 for RNAP II CTD Ser-7 phosphorylation), approximately 4 nM. Moreover, the “Time to complete inhibition of target (inactivation of CDK7, RNAP II CTD phosphorylation)” value in assay [4] (treated 0 to 4 hours) lay in the range of 3 to 4 h. Besides, in assay [4] (washout following a 4-hour administration), the “Recovery of RNAP II CTD phosphorylation after inhibitor washout” value was “did not restore normal CTD phosphorylation levels”. In addition, the “Effect of pre-incubation with recombinant CAK complex prior to addition of ATP” value in assay [5] is “dramatic increase in CDK7 inhibitory activity”. Further, in assay [6], the “Anti-proliferative activity in MM cell lines” value is given as “highly effective anti-proliferative activity”.
